In PubChem BioAssay AID588774 (The Scripps Research Institute Molecular Screening Center, 2011):
Activity calls are given as the source filed them.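 How the source made its calls: active means target enzyme inhibited at least 50% at a set dose, and selective over every off-target enzyme by a set factor; inactive means weaker inhibition or too little selectivity.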

Legend:
[1] = pPAFAH inhibition and serine hydrolase selectivity, SAR follow-up, selectivity assay for pPAFAH inhibitor project, biochemical, gel-based, FP-Rh fluorescence, complex proteome, SAR compounds (AID 588774); conditions: gel-based competitive ABPP, at 10 µM;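 on inhibition: 0% = DMSO-only band intensity and 100% = blank gel background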
[2] = test system: ABHD3; assay: as above; conditions: gel-based competitive ABPP, at 10 µM, stronger effect = higher value
[3] = biological target: ABHD4 (UniProt Q8VD66); assay: as above; conditions: gel-based competitive ABPP, stronger effect = higher value
[4] = test system: ABHD6; assay: as above; conditions: gel-based competitive ABPP, stronger effect = higher value
[5] = test system: FAAH; assay: as above; conditions: gel-based competitive ABPP, stronger effect = higher value
[6] = test system: LYPLA1; assay: as above; conditions: gel-based competitive ABPP, stronger effect = higher value
[7] = test system: LYPLA2; assay: as above; conditions: gel-based competitive ABPP, stronger effect = higher value
[8] = biological target: Monoglyceride lipase (Mus musculus) (UniProt O35678); assay: as above; conditions: gel-based competitive ABPP, MAGL, stronger effect = higher value
[9] = biological target: Platelet-activating factor acetylhydrolase (Mus musculus) (UniProt Q60963); assay: as above; conditions: gel-based competitive ABPP, pPAFAH, stronger effect = higher value
[10] = test system: pPAFAH; assay: as above; conditions: gel-based competitive ABPP, anti-targets inhibited, at 10 µM

Sequence of ABHD4 (Q8VD66 whole entry, looked up): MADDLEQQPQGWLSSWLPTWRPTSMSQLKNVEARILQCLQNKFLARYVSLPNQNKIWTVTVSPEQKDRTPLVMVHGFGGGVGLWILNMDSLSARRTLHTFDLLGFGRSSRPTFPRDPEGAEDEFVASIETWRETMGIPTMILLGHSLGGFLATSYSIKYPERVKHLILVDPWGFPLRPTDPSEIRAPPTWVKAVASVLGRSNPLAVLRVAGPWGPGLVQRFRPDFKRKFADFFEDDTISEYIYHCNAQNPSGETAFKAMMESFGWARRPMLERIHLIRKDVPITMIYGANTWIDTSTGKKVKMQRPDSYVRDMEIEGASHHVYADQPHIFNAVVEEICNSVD
Sequence of Platelet-activating factor acetylhydrolase (Mus musculus) (Q60963 whole entry, looked up): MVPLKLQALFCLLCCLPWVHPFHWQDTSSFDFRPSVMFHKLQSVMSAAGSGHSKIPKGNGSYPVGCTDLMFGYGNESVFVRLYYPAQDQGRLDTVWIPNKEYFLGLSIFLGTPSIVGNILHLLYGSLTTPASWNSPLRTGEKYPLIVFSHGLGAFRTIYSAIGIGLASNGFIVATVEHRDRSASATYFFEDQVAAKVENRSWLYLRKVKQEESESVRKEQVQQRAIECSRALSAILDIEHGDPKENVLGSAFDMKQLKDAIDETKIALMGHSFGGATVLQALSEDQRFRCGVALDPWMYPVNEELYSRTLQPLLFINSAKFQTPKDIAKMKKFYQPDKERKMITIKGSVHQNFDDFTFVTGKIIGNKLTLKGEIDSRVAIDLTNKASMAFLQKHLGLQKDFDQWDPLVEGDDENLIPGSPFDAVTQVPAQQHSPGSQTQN
Sequence of Monoglyceride lipase (Mus musculus) (O35678 whole entry, looked up): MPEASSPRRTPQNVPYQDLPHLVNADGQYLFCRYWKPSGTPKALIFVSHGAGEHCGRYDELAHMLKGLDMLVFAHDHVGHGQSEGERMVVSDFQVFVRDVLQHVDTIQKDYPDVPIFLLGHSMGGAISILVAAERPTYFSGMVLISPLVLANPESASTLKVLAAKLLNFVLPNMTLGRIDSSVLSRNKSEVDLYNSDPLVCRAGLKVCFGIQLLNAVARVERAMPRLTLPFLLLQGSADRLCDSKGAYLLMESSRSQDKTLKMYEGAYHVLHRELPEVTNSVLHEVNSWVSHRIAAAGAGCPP

| SMILES | anti-target count ([1]; ABHD3, anti-targets inhibited) | anti-target count ([1]; ABHD4, anti-targets inhibited) | anti-target count ([1]; ABHD6, anti-targets inhibited) | anti-target count ([1]; FAAH, anti-targets inhibited) | anti-target count ([1]; LYPLA1, anti-targets inhibited) | anti-target count ([1]; LYPLA2, anti-targets inhibited) | anti-target count ([1]; MAGL, anti-targets inhibited) | inhibition [2] | inhibition ([3]; at 10 µM) | inhibition ([4]; at 10 µM) | inhibition ([5]; at 10 µM) | inhibition ([6]; at 10 µM) | inhibition ([7]; at 10 µM) | inhibition ([8]; at 10 µM) | inhibition ([9]; at 10 µM) | inhibition ([9]; inhibition, at 0.1 µM) [%] | inhibition ([9]; inhibition, at 1 µM) [%] | anti-target count [10] | inhibition ([5]; inhibition, at 0.1 µM) [%] | inhibition ([5]; inhibition, at 1 µM) [%] | further results |
| --- | --- | --- | --- | --- | --- | --- | --- | --- | --- | --- | --- | --- | --- | --- | --- | --- | --- | --- | --- | --- | --- |
| Cc1cc(N2CCN(C(=O)Oc3ccc(-c4ccc(Br)cc4)cc3)CC2)c2ccccc2n1 | 0 | 0 | 0 | 0 | 0 | 0 | 0 | 0% (inactive) | 0% (inactive) | 0% (inactive) | 0% (inactive) | 0% (inactive) | 0% (inactive) | 0% (inactive) | 56% (inactive) | 2 | 37 | 0 | – | – | – |
| Cc1cc(N2CCN(C(=O)Oc3noc4cc(Cl)ccc34)CC2)c2ccccc2n1 | 4 | 4 | 4 | 4 | 4 | 4 | 4 | 0% (inactive) | 0% (inactive) | 53% | 100% | 50% (inactive) | 0% (inactive) | 86% | 100% | 89 | 91 | 4 | 87 | 100 | inhibition ([4]; inhibition, at 0.1 µM): 53%; inhibition ([4]; inhibition, at 1 µM): 53%; inhibition ([6]; inhibition, at 0.1 µM): 20%; inhibition ([6]; inhibition, at 1 µM): 25%; inhibition ([8]; inhibition, at 0.1 µM): 79%; inhibition ([8]; inhibition, at 1 µM): 83% |
| Cc1cc(N2CCN(C(=O)n3oc4cc(Cl)ccc4c3=O)CC2)c2ccccc2n1 | 3 | 3 | 3 | 3 | 3 | 3 | 3 | 0% (inactive) | 48% (inactive) | 38% (inactive) | 99% (inactive) | 73% (inactive) | 24% (inactive) | 97% | 99% | 87 | 87 | 3 | 39 | 79 | inhibition ([3]; inhibition, at 0.1 µM): 36%; inhibition ([3]; inhibition, at 1 µM): 38%; inhibition ([4]; inhibition, at 0.1 µM): 19%; inhibition ([4]; inhibition, at 1 µM): 32%; inhibition ([6]; inhibition, at 1 µM): 13%; inhibition ([7]; inhibition, at 0.1 µM): 3%; inhibition ([7]; inhibition, at 1 µM): 6%; inhibition ([8]; inhibition, at 0.1 µM): 54%; inhibition ([8]; inhibition, at 1 µM): 73% |
| Cc1cc(N2CCN(C(=O)Oc3ccc([N+](=O)[O-])cc3)CC2)c2ccccc2n1 | 2 | 2 | 2 | 2 | 2 | 2 | 2 | 0% (inactive) | 0% (inactive) | 0% (inactive) | 71% (inactive) | 0% (inactive) | 0% (inactive) | 64% (inactive) | 100% (inactive) | 47 | 95 | 2 | 16 | 36 | inhibition ([8]; inhibition, at 0.1 µM): 23%; inhibition ([8]; inhibition, at 1 µM): 51% |
| Cc1cc(N2CCN(C(=O)Oc3ccc(C4CCCCC4)cc3)CC2)c2ccccc2n1 | 0 | 0 | 0 | 0 | 0 | 0 | 0 | 0% (inactive) | 0% (inactive) | 0% (inactive) | 0% (inactive) | 0% (inactive) | 0% (inactive) | 0% (inactive) | 95% (inactive) | 2 | 63 | 0 | – | – | – |
